Reference: patent US20230146675A1, “PYRIMIDO[5,4-d]PYRIMIDINE DERIVATIVES AS ENT INHIBITORS FOR THE TREATMENT OF CANCERS, AND COMBINATION THEREOF WITH ADENOSINE RECEPTOR ANTAGONISTS” (ITEOS BELGIUM SA, priority 2020, published 2023)

Legend:
[1] = molecular target: T1, Human phosphodiesterase-2A1 (Homo sapiens, UniProt O00408); test: PDE2A1 (h) assay; assay type: biochemical
T1 construct: host or cells: Sf9 cells
Protocol: (§1) The test compound (compound 72), reference compound or water (control) were added to a buffer containing 40 mM Tris/HCl (pH 7.8), 3 mM MgCl2, 1.4 mM DTT, 0.21% BSA, 200 mM NH4Cl, 1 μM cGMP and 0.1 μCi [3H]cGMP. Thereafter, the reaction was initiated by addition of the enzyme (final amount depending on the efficiency of the isolation) and the mixture was incubated for 60 min at 22° C. For basal control measurements, the enzyme was omitted from the reaction mixture. Following incubation SPA beads were added. After 20 min at 22° C. under shaking, the amount of [3H]5′GMP was quantified with a scintillation counter (MicroBeta, Perkin Elmer). The results were expressed as a percent inhibition of the control enzyme activity.
The test compound (compound 72), reference compound or water (control) were added to a buffer containing 40 mM Tris/HCl (pH 7.4), 8 mM MgCl2 and 1.7 mM EGTA/NaOH, 1.8 μM cAMP and 1 μCi [3H]cAMP. Thereafter, the reaction was initiated by addition of the enzyme (about 2 ng) and the mixture was incubated for 15 min at 22° C. For basal control measurements, the enzyme was omitted from the reaction mixture. Following incubation SPA beads were added. After 30 min at 22° C. under shaking, the amount of [3H]5′AMP was quantified with a scintillation counter (MicroBeta, Perkin Elmer). The results were expressed as a percent inhibition of the control enzyme activity. […]

[2] = molecular target: T2, Human phosphodiesterase-3B (Homo sapiens, UniProt Q13370); test: PDE3B (h) assay; assay type: biochemical
T2 construct: host or cells: Sf9 cells
T2 sequence (Q13370 whole entry): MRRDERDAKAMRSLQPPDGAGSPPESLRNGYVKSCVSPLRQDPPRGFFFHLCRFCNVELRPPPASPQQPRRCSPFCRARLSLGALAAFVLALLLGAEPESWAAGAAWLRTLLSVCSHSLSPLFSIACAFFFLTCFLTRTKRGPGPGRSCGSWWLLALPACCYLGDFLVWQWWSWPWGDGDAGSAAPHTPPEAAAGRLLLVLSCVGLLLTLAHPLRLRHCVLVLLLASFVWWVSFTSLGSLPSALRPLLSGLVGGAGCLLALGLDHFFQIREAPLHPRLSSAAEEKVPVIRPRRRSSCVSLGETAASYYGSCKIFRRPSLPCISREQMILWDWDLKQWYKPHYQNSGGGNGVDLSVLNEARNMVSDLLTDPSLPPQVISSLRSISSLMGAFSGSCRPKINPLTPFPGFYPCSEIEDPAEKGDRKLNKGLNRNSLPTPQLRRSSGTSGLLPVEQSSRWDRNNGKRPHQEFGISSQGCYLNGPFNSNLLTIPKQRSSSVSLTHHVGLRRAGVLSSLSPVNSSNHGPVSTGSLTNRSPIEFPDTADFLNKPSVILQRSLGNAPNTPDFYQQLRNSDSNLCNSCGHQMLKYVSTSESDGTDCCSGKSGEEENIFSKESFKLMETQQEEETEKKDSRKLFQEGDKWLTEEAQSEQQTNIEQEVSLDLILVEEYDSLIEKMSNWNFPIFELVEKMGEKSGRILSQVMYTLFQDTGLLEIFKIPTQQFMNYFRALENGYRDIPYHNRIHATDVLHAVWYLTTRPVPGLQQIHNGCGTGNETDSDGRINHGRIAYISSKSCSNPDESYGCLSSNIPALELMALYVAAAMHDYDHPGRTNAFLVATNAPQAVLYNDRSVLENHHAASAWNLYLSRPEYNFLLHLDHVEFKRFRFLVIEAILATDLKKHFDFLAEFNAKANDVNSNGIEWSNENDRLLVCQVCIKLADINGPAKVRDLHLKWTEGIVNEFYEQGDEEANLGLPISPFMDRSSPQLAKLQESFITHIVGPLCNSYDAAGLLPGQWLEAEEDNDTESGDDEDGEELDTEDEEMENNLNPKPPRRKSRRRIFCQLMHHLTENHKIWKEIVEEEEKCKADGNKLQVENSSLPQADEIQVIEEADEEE
Protocol: as §1, with “NH4Cl, 2” for “NH4Cl, 1”, “and 0.05” for “and 0.1”, “counter (Topcount, Packard).” for “counter (MicroBeta, Perkin Elmer).”, “activity. The standard inhibitory reference compound was zaprinast, which was tested in each experiment at several concentrations to obtain an inhibition curve from which its IC50 value was calculated. • Human phosphodiesterase-3B quantified by measuring the formation of 5′AMP from cAMP using a human recombinant enzyme expressed in Sf9 cells” for “activity.”
The test compound (compound 72), reference compound or water (control) were added to a buffer containing 40 mM Tris/HCl (pH 7.4) and 8 mM MgCl2, 450 nM cAMP and 0.25 μCi [3H]cAMP. […] After 30 min at 22° C. under shaking, the amount of [3H]5′AMP was quantified with a scintillation counter (MicroBeta, Perkin Elmer). […]

T1 sequence (O00408 1-920 isoform O00408-2): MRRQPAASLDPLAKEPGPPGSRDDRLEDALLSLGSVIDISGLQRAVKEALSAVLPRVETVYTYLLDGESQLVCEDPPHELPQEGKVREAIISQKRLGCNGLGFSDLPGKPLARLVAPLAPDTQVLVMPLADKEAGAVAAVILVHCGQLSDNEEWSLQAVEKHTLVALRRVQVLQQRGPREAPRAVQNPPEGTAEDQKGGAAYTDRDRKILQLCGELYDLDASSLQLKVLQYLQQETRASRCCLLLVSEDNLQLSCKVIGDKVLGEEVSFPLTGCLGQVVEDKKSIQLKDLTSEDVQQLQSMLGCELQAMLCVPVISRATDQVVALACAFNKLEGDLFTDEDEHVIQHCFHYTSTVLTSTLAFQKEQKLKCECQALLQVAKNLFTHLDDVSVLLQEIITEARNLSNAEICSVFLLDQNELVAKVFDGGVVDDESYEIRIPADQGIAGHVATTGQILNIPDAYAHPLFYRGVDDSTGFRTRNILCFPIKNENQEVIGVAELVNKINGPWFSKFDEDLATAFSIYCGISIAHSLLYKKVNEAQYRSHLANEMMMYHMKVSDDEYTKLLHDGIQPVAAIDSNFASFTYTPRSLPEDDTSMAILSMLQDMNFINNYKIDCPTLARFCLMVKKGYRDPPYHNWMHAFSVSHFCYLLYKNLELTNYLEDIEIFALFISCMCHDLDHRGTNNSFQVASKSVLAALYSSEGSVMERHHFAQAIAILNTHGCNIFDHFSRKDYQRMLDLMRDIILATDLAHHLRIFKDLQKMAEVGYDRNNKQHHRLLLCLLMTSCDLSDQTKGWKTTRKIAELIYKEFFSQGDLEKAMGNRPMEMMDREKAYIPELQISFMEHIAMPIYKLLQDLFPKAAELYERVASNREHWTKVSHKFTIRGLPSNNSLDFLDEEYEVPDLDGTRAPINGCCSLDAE

SMILES: COCCN(CCOC)c1nc(N2CCN(C)C(=O)C2)c2nc(N(CCOC)CCOC)nc(N3CCC(OC)CC3)c2n1 [Compound 72, 4-(2,6-bis(bis(2-methoxyethyl)amino)-8-(4-methoxypiperidin-1-yl)pyrimido[5,4-d]pyrimidin-4-yl)-1-methylpiperazin-2-one]
- IC50 [1]: > 10 µM
- IC50 [2]: > 10 µM
